Reference: patent US11485720B2, “Anti-infective agents” (University of Dundee, priority 2016, dated 2022)

Columns and labels:
Trypanosoma cruzi = Trypanosoma cruzi intracellular imaging assay; type: cell-based; settings: read-out: Trypanosoma cruzi pEC50 (converted)
Excerpt: Assay Method for Measurement of In Vitro Inhibition of Trypanosoma cruzi. […] These experiments were run in accordance with the method of Pena et. al., Scientific Reports 5, Article number: 8771 (2015). Results from these experiments are provided in the Experimental Results hereinafter.

[1] = biological target: T1, Plasmodium falciparum lysyl t-RNA synthetase (Pf-KRS1) (Plasmodium falciparum, UniProt Q8IDJ8); test: Pf-KRS1 inhibition biochemical assay (Kinase-Glo, ATP depletion); settings: read-out: Pf-KRS pIC50 (converted)
T1 construct: Pf KRS1-; made in house; host or cells: E. coli BL21 (DE3)
T1 sequence (Q8IDJ8 entry or part of it, looked up, natural form): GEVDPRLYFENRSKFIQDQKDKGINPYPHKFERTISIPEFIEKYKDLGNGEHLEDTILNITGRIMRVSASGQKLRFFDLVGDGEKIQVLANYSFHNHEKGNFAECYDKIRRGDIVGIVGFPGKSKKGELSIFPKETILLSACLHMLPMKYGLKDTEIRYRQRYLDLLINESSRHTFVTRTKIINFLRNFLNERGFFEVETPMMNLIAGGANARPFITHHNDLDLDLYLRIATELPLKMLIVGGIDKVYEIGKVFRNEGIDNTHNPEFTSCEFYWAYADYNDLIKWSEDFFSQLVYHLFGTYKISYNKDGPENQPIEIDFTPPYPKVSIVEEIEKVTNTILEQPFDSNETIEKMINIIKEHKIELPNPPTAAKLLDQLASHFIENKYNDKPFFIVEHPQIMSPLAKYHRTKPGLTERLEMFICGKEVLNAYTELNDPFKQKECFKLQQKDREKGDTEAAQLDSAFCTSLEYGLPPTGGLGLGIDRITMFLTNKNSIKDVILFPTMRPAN
Excerpt: Plasmodium falciparum Lysine tRNA Synthetase (KRS1) Biochemical Assay Methodology.
Lysine tRNA Synthetase (KRS1) is an enzyme which catalyses the esterification of L-Lysine to the appropriate transfer ribonucleic acid (tRNA), to form an aminoacyl-tRNA. Once the tRNA is charged, a ribosome transfers the amino acid from the tRNA onto a growing peptide, according to the genetic code.
The substrates of this reaction are L-lysine, and adenosine triphosphate (ATP), the overall reaction is: amino acid+tRNA+ATP→aminoacyl-tRNA+AMP+PPi
In this overall reaction AMP is adenosine monophosphate and PP; is inorganic pyrophosphate. The reaction progression in a biochemical assay can be tracked by the depletion of one of the substrates, in the case of this invention, ATP. This was done using the proprietary assay kit, Kinase Glo® Assay which is a luminescent kinase assay platform suitable for monitoring kinase activities using up to 10 μm ATP which is commercially available from the Promega Corporation of Madison, Wis., USA. The Kinase-Glo® Assay was performed in a single well of a multiwell plate by adding a volume of Kinase-Glo® Reagent equal to the volume of a completed kinase reaction and measuring luminescence. The resulting luminescent signal is correlated with the amount of ATP present and is inversely correlated with the amount of kinase activity. As such by use of this assay methodology a reduction of the luminescent signal is relative to the reduction in ATP as the reaction progresses. A compound which inhibits the action of KRS will show no drop in the luminescent signal from assay controls.
Assays were performed using both Plasmodium falciparum and human KRS to assess any selectivity of various test compounds.
Test compounds were solubilized in DMSO at a top concentration of 10 mM and serially diluted 1 in 3 to achieve a range of final assay concentrations of 50 μM to 2.5 nM in 10 μl reaction volume.
KRS was diluted to a working concentration of 75 nM in assay buffer (25 mM HEPES, 25 mM KOH, 10 mM MgCl2.6H2O, 50 mM KCl), and the following ‘Master Mix’ prepared in assay buffer: 0.1 mg/ml BSA, 250 μM DTT, 200 μM Spermine, 0.05% NP-40, ATP 3 μM for Pf KRS1 (4 μM for Hs KRS1), 0.4 mg/ml tRNA from Yeast, 60 μM L-Lysine, 0.5 U/ml Pyrophosphatase.
Plates were incubated at room temperature for 5 h for Pf KRS (2.5 hrs for HsKRS), then the assay stopped by the addition of 10 μl of The Kinase-Glo® Reagent Assay was performed in a single well of a multiwell plate by adding a volume of Kinase-Glo® Reagent which is commercially available from the Promega Corporation of Madison, Wis., USA. The plates were incubated in the dark for a further 15 mins before being read for luminescence on a BMG PHERAstar® FSX plate reader which is a multi-mode reader for use in high-throughput screening available from BMG Labtech if Cary, N.C., USA. Data were analysed by calculating the percentage inhibition compared to the maximum and minimum assay controls. Concentration effect curves were fitted using nonlinear regression within ActivityBase and IC50 values were determined using standard protocols.

Cryptosporidium parvum = test: In vitro Crytosporidium inhibition assay; type: cell-based; settings: Cryptosporidium parvum; read-out: Cryptosporidium parvum pEC50 (converted)
Excerpt: Assay Method for Measurement of In Vitro Inhibition of Crytosporidium.
These experiments were run in accordance with the method of Besssoff et. al. Antimicrob. Agents Chemother. 2013, 57:1804-1814. Results from these experiments are provided in the Experimental Results hereinafter.

[2] = system: Plasmodium falciparum strain 3D7; test: Plasmodium falciparum 3D7 in vitro growth inhibition (SYBRgreen I); type: cell-based; settings: Plasmodium falciparum, 3D7; read-out: pEC50 for Pf 3D7 (converted)
Experimental: Parasite Cultures and Cytotoxicity Assay Methodology for Plasmodium falciparum. […] Growth inhibition of the Plasmodium falciparum cultures was quantified in a 10-point dose response curve with a 1 in 3 dilution series from a top assay concentration of 50 μM. This 384 well plate based fluorescence assay utilises the binding of SYBRgreen I (Thermo Fisher Scientific/Invitrogen cat. no. S7585) to double stranded DNA, which greatly increases the fluorescent signal at 528 nm after excitation at 485 nm. Mefloquine was used as a drug control to monitor the quality of the assay (Z′=0.6 to 0.8, where Z′ is a measure of the discrimination between the positive and negative controls on a screen plate). Dose-response curves were determined from a minimum of 3 independent experiments. Compound bioactivity was expressed as EC50, the effective concentration of compound causing 50% parasite death.

Hep G2 = Hep G2 in-vitro cytotoxicity assay; type: cell-based; settings: Homo sapiens, HepG2, read-out: Hs HEPG2 pEC50 (converted)
Excerpt: In-vitro cytotoxicity studies can be carried out using Hep G2 (Human hepatocyte carcinoma, HPACC cat. no. 85011430) used as indicators for general mammalian cell toxicity. Hep G2 in-vitro cytotoxicity can be assessed using the assay procedure as described in “Use of a human-derived liver cell line for the detection of cytoprotective, antigenotoxic and cogenotoxic agents”, Volker Mersch-Sundermann, Siegfried Knasmüller, Xin-jiang Wu, Firouz Darroudi, Fekadu Kassie. J. Tox 198 (2004) 329-340) the contents of which are incorporated herein by reference.

[3] = biological target: T2, Mycobacterium tuberculosis lysyl t-RNA synthetase (Mtb KRS) (Mycobacterium tuberculosis, UniProt P9WFU9); test: Mtb KRS inhibition biochemical assay (BioMol Green); settings: read-out: Mtb KRS pIC50 (converted)
T2 construct: MtbKRS1-; made in house; host or cells: E. coli BL21 (DE3)
T2 sequence (P9WFU9 whole entry): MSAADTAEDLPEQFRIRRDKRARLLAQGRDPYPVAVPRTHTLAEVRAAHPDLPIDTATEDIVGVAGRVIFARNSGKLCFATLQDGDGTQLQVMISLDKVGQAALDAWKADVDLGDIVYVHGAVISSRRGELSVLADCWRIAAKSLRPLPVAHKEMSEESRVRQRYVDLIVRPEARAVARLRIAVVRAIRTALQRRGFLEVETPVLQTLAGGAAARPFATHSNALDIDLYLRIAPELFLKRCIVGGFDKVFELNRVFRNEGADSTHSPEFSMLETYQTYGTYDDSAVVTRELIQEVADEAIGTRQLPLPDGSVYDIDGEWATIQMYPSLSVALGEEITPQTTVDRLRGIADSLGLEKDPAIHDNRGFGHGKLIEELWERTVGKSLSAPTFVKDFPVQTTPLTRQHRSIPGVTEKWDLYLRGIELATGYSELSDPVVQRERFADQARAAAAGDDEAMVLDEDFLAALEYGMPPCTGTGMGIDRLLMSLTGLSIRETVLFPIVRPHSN

Compound	EC50 (Trypanosoma cruzi) [nM]	IC50 [1] [nM]	EC50 (Cryptosporidium parvum) [nM]	EC50 [2] [nM]	EC50 (Hep G2) [nM]	IC50 [3] [nM]
O=C(NCC1CCCCC1)c1cc(=O)c2cc(O)ccc2o1 [Example 6, N-(cyclohexylmethyl)-6-hydroxy-4-oxo-chromene-2-carboxamide]	20	63.1	126	158	15800	–
O=C(NCC1CCCCC1)c1cc(=O)c2cccc(O)c2o1 [Example 12, N-(cyclohexylmethyl)-8-hydroxy-4-oxo-chromene-2-carboxamide]	316	–	–	–	25100	–
O=C(NCC1(O)CCCCC1)c1cc(=O)c2cc(O)ccc2o1 [Example 13, 6-hydroxy-N-[(1-hydroxycyclohexyl)methyl]-4-oxo-chromene-2-carboxamide]	251	79.4	120	50.1	20000	–
O=C(NCC1CCCCC1)c1cc(=O)c2cc(F)ccc2o1 [Example 31, N-(cyclohexylmethyl)-6-fluoro-4-oxo-chromene-2-carboxamide]	126	79.4	631	316	50100	–
O=C(NCC1(O)CCCCC1)c1cc(=O)c2cc(F)cc(F)c2o1 [Example 55, 6,8-difluoro-N-[(1-hydroxycyclohexyl)methyl]-4-oxo-chromene-2-carboxamide]	–	200	501	398	50100	–
O=C(NCC1CCC(F)(F)CC1)c1cc(=O)c2cc(F)cc(O)c2o1 [Example 75, N-((4,4-difluorocyclohexyl)methyl)-6-fluoro-8-hydroxy-4-oxo-4H-chromene-2-carboxamide]	–	79.4	794	200	50100	–
O=C(NCC1(O)CCC(F)(F)CC1)c1cc(=O)c2cc(F)cc(O)c2o1 [Example 76A, N-((4,4-difluoro-1-hydroxycyclohexyl)methyl)-6-fluoro-8-hydroxy-4-oxo-4H-chromene-2-carboxamide]	–	50.1	3160	79.4	50100	–
O=C(NC1CCCCC1)c1cc(=O)c2cc(F)cc(O)c2o1 [Example 76B, N-cyclohexyl-6-fluoro-8-hydroxy-4-oxo-chromene-2-carboxamide]	–	398	–	1580	–	7940
O=C(NC1CCCC(F)(F)C1)c1cc(=O)c2cc(F)cc(O)c2o1 (centres unmarked) [Example 76C, N-(3,3-Difluorocyclohexyl)-6-fluoro-8-hydroxy-4-oxo-4H-chromene-2-carboxamide]	–	316	2000	1000	50100	15800
O=C(NCC1(O)CC2(CCC2)C1)c1cc(=O)c2cc(F)cc(O)c2o1 [Example 76D, 6-fluoro-8-hydroxy-N-((2-hydroxyspiro[3.3]heptan-2-yl)methyl)-4-oxo-4H-chromene-2-carboxamide]	–	126	3980	398	50100	–
O=C(NCC1CCC1)c1cc(=O)c2cc(F)cc(O)c2o1 [Example 76E, N-(cyclobutylmethyl)-6-fluoro-8-hydroxy-4-oxo-4H-chromene-2-carboxamide]	–	251	–	794	–	31600
O=C(NCCCC1CCC1)c1cc(=O)c2cc(F)cc(O)c2o1 [Example 76G, N-(3-cyclobutylpropyl)-6-fluoro-8-hydroxy-4-oxo-4H-chromene-2-carboxamide]	–	126	1260	1580	31600	–
CCC(C)CNC(=O)c1cc(=O)c2cc(F)cc(O)c2o1 (centres unmarked) [Example 76H, 6-fluoro-8-hydroxy-N-(2-methylbutyl)-4-oxo-chromene-2-carboxamide]	–	251	–	251	–	50100
Nc1cccc2c(=O)cc(C(=O)NCC3CCCCC3)oc12 [Example 83, 8-Amino-N-(cyclohexylmethyl)-4-oxo-4H-chromene-2-carboxamide]	158	50.1	–	20	7940	–
CS(=O)(=O)Nc1cccc2c(=O)cc(C(=O)NCC3CCCCC3)oc12 [Example 84, N-(cyclohexylmethyl)-8-(methylsulfonamido)-4-oxo-4H-chromene-2-carboxamide]	–	126	631	316	50100	–
Nc1cc(F)cc2c(=O)cc(C(=O)NCC3CCC(F)(F)CC3)oc12 [Example 94, 8-amino-N-[(4,4-difluorocyclohexyl)methyl]-6-fluoro-4-oxo-4H-chromene-2-carboxamide]	50.1	–	–	50.1	–	–
Nc1cc(F)cc2c(=O)cc(C(=O)NCC3CCC(F)(F)C3)oc12 (centres unmarked) [Example 95, 8-amino-N-[(3,3-difluorocyclopentyl)methyl]-6-fluoro-4-oxo-4H-chromene-2-carboxamide]	63.1	–	–	50.1	–	–
Nc1cc(F)cc2c(=O)cc(C(=O)NCC3CCCCC3)oc12 [Example 99, 8-amino-N-(cyclohexylmethyl)-6-fluoro-4-oxo-chromene-2-carboxamide]	25.1	50.1	15.8	10	5010	–
